Results published in BindingDB's records for doi:10.1021/acs.jmedchem.1c00511 (2021).

Molecular target: Vitamin K-dependent protein C (Homo sapiens) (UniProt P04070)
Assay: Inhibition of human APC using pyroGlu-Pro-Arg-p-nitroaniline-HCl as substrate measured after 5 mins by plate reader analysis

Sequence of Vitamin K-dependent protein C (Homo sapiens) (P04070 whole entry, looked up): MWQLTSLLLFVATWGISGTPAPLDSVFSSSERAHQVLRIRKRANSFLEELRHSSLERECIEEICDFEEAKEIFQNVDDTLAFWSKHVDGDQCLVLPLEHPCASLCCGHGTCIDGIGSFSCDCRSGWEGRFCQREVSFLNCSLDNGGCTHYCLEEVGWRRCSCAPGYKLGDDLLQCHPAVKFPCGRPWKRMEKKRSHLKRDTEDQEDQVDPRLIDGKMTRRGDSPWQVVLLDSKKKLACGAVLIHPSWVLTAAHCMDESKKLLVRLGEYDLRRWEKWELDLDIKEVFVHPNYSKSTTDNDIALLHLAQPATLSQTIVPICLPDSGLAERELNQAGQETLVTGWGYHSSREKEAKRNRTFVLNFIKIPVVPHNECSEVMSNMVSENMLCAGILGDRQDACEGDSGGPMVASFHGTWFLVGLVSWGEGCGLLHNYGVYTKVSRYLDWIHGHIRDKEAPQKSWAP

## N#Cc1cccc(C(NCC2CC2)c2ccc(F)c(NC(=O)c3cc(C(F)(F)F)nn3-c3cccc(CN)c3)c2)c1 (single isomer, unassigned; (+)) [(+)-1-(3-(aminomethyl)phenyl)-N-(5-((3-cyanophenyl)(cyclopropyl-methylamino)methyl)-2-fluorophenyl)-3-(trifluoromethyl)-1H-pyrazole-5-carboxamide]
  IC50: > 30 µM
